Assay results taken from article PMC12598805, “Crystal Structure–Activity Relationship of Some MeO Phenylacrylonitriles: Dual Antimicrobial–Cytotoxic Effects and in Silico Perspectives” (ChemistryOpen, 2025).
≈ marks a conversion by molar mass, not a printed value.

Assays:
Assay type in all cases: cell-based
[1] = system: Pseudomonas aeruginosa (ATCC 27853); assay: MBC by sub-culture from wells without growth; conditions: ATCC27853, P.aeruginosa
Description: (§1) Pseudomonas aeruginosa (ATCC 27853) […]
(§2) ATCC: American Type Culture Collection; NRRL: Northern Regional Research Laboratory The compounds 2(a-c) obtained could only be completely solubilised with dimethyl sulphoxide (DMSO) and the highest possible stock solutions of 50 mg.mL-1 were prepared. […]
(§3) 3.1. Determination of Minimum Inhibition Concentration (MIC)
(§4) The minimum inhibition concentration (MIC) values of the compounds 2(a-c) against the test bacteria used in the study were determined according to the broth microdilution method.[1-2] MHB or SDB was used as test medium and bacterial and yeast suspensions were prepared at 0.5 Mc Farland concentration for each test bacteria. Double layer serial dilutions were prepared in "U" type 96-well microtiter plates. Medium+bacteria suspensions containing only medium in the first row, medium+bacteria in the second row and the final concentrations of the synthesised substances in the other rows between 25 mg.mL-1 and […] were added to the wells with a final volume of 200
(§5) μL. Ampicillin, Kanamycin and Amphotericin B standard antibiotics were used as positive controls.
(§6) Bacteria were incubated at 37±0.1 °C and C. albicans at 30±0.1 °C for 24-48 hours and the lowest concentration without growth was determined as MIC. Tests were performed in two parallel runs and mean values were given as a result. In order to estimate “the minimum bactericidal/fungicidal concentrations (MBC/MFC) of the synthesised acrylonitrile derivatives “needed to indicate […] killing of the original inoculum,” 10 μl was taken from the wells with no observed growth and further sub-cultured onto their agar media (MHA and SDA for bacterial and fungal strains, respectively).[3] […]

[2] = system: Pseudomonas aeruginosa (ATCC 27853); assay: Agar diffusion, zone of inhibition; conditions: P.aeruginosa, compounds at 50 mg mL^−1; for zone of inhibition at 50 mg/mL: Pseudomonas aeruginosa, ATCC27853
Description: (§7) The antibacterial and antifungal activities were reported utilizing the method described by the Clinical & Laboratory Standards Institute.^[ [31], [32] ^] Agar diffusion method was used to determine the antimicrobial activity of the synthesized substances. The media used were mueller hinton agar (MHA) for bacteria and sabouraud‐dextrose agar (SDA) for fungi (Merck), as recommended by the manufacturer.
(§8) The synthesized compounds were initially investigated for their antimicrobial activity to elucidate the potential therapeutic utility against various pathogenic microbes using the agar plate diffusion method. The compounds were tested at a concentration of 50 mg mL^−1, and the antibiotics (ampicillin, kanamycin, and amphotericin B) were used at 5 mg mL^−1. […] K.pneumoniae and B.cereus were resistant to ampicillin, while they were susceptible to kanamycin with inhibition values of 30 and 26 mm, respectively. No antimicrobial activity of the compounds was observed against E.faecalis, S.typhimurium, K.pneumoniae, and for the fungus compared to Amphotericin B (20 mm). […]
as §1
(§9) ATCC: American Type Culture Collection; NRRL: Northern Regional Research Laboratory The compounds 2(a-c) obtained could only be completely solubilised with dimethyl sulphoxide (DMSO) and the highest possible stock solutions of 50 mg.mL-1 were prepared. To these wells 50 μl of the previously prepared substances were transferred using sterile micropipette tips. For comparison, Ampicillin and kanamycin antibiotics for bacteria and Amphotericin B antibiotics for fungus were used as positive controls and DMSO was used as negative control. The prepared petri plates were kept at +4°C for about 1 hour and then the bacterial cultures were incubated at 37°C for 18-24 hours and mould cultures at 27-30°C for 48-72 hours. The zones formed were measured millimetrically with callipers. The experiments were performed with three repetitions. […]

[3] = system: Enterococcus faecalis (ATCC 29212); assay: Agar diffusion, zone of inhibition; conditions: ATCC29212, E.faecalis, compounds at 50 mg mL^−1
Description: as §7, §8
Enterococcus faecalis (ATCC 29212) […]
as §9

[4] = system: Escherichia coli (ATCC 25922); assay: Broth microdilution MIC; conditions: ATCC25922, E.coli
Description: Escherichia coli (ATCC 25922) […]
as §2, §3, §4, §5
(§10) Bacteria were incubated at 37±0.1 °C and C. albicans at 30±0.1 °C for 24-48 hours and the lowest concentration without growth was determined as MIC. Tests were performed in two parallel runs and mean values were given as a result. […]

[5] = system: Bacillus cereus (ATCC-10876); assay: Broth microdilution MIC; conditions: Bacillus cereus, ATCC10876; B.cereus; read-out: MIC
Description: Bacillus cereus (ATCC-10876) […]
as §2, §3, §4, §5, §10

[6] = system: Pseudomonas aeruginosa (ATCC 27853); assay: Broth microdilution MIC; conditions: ATCC27853, P.aeruginosa
Description: as §1, §2, §3, §4, §5, §10

[7] = system: Staphylococcus aureus (ATCC 29213); assay: MBC by sub-culture from wells without growth; conditions: ATCC29213, S.aureus
Description: Staphylococcus aureus (ATCC 29213) […]
as §2, §3, §4, §5, §6

MIC [4] [mg/mL] | MIC [5] [mg/mL] | MIC [6] [mg/mL] | Compound | MBC [1] [mg/mL] | zone of inhibition [2] [mm] | zone of inhibition at 50 mg/mL [2] [mm] | zone of inhibition at 50 mg/mL [3] [mm] | MBC [7] [mg/mL]
2.5 (≈ 10.6 mM) | 12.5 (≈ 53.1 mM) | 5 (≈ 21.3 mM) | COc1ccc(C=C(C#N)c2ccccc2)cc1 [2a, 3‐(4‐methoxyphenyl)‐2‐phenylacrylonitrile] | 5 (≈ 21.3 mM) | 13 ± 1.41 | 13 | < 6 | 25 (≈ 106 mM)
25 (≈ 98.7 mM) | 12.5 (≈ 49.4 mM) | 12.5 (≈ 49.4 mM) | COc1ccc(/C=C(\C#N)c2ccc(F)cc2)cc1 [2b] | 12.5 (≈ 49.4 mM) | 12 ± 0.71 | 12 | < 6 | 25 (≈ 98.7 mM)
25 (≈ 67.3 mM) | 12.5 (≈ 33.7 mM) | 12.5 (≈ 33.7 mM) | COc1ccc(/C=C(\C#N)c2cc(C(F)(F)F)cc(C(F)(F)F)c2)cc1 [2c] | 12.5 (≈ 33.7 mM) | 15 ± 0.71 | 15 | < 6 | 12.5 (≈ 33.7 mM)
